In patent US9732044B2, “N-(pyrid-4-yl)amides and N-(pyrimidin-4-yl)amides and their pharmaceutical and cosmetic use” (GALDERMA RESEARCH & DEVELOPMENT, priority 2011, dated 2017):
Like-named read-outs stand apart in the source and are kept apart here. Values belong to the compound of their own block, whether it stands above or below them.

Legend:
androgen receptor (AR) = androgen receptor (AR) (Homo sapiens (Human), UniProt P10275); experiment: Androgen receptor transactivation test in PALM cell line (cross curves against methyl trienolone); format: cell-based; conditions: threshold lists, PALM cells
Sequence of androgen receptor (AR) (P10275 whole entry): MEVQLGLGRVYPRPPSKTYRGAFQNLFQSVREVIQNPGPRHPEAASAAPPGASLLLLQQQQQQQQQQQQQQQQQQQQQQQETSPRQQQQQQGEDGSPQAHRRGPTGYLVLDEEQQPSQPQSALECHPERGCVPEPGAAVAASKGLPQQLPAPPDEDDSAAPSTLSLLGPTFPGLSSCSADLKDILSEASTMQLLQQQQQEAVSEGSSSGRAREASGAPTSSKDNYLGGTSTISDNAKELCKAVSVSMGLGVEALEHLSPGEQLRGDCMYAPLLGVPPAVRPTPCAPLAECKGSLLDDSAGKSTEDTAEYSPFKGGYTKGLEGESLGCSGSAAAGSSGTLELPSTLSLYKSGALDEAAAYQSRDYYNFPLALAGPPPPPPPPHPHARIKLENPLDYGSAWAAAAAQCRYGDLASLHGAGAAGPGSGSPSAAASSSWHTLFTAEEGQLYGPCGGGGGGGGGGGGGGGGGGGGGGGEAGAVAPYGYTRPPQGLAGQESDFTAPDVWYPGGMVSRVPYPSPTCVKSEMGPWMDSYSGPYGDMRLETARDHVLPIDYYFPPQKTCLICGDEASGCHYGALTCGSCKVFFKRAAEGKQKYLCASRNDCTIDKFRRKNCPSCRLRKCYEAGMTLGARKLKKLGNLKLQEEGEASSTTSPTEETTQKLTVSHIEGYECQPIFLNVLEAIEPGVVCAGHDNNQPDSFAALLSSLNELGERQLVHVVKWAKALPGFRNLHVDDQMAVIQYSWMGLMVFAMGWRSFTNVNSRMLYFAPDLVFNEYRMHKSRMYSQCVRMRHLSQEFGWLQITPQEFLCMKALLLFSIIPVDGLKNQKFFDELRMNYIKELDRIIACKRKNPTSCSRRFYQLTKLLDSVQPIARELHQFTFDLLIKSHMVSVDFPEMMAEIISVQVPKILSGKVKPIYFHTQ
Procedure: This AR inhibiting activity was measured in a transactivation test by the dissociation constants KdR (rest), KdA (active), and Kdapp (apparent).
A compound may be said to be an AR inhibitor if it has a dissociation constant, Kdapp, of less than or equal to 1 μM, and a KdR/KdA ratio of less than or equal to 10 in a transactivation test.
The transactivation test is carried out in the cell line PALM (PC3 androgen receptor Luciferase MMTV), which is a stable transfectant containing the plasmids PMMTV-neo-Luc (reporter gene) and pSG5puro-AR.
In this study, the affinity of each test compound for the 2 states of the receptor (KdR and KdA) is determined together with the apparent Kd (KdApp). This constant depends upon the 2 Kd's (KdR and KdA), but also depends on the initial equilibrium of the receptor between the active state and rest state (L0) and on its expression rate. It is determined by the following formula: 1/KdApp=(L0/(1+L0))×(1/KdR)+(1/(1+L0))×(1/KdA)
In order to determine these constants, “cross curves” of the test compound against a reference agonist, methyl trienolone, are carried out on a 96-well plate. The test compound is used in 10 concentrations and the reference agonist in 7 concentrations.

[1] = tested on: sebaceous gland of the ear of a Syrian hamster; experiment: In vivo animal model with reduction in the size of the sebaceous glands (Syrian hamster ear); conditions: 1 g %/mL solution, topical on ear, daily for 24 days, compared to control (absolute ethanol)
Excerpt: The model of the sebaceous gland of the ear of a Syrian hamster described by Plewig and Luderschmidt in J. Inv. Derm., (1977), pp. 171-176 is a classical tool for the in vivo study of the function of the sebaceous gland. In fact, the inner faces of the ear lobes of the hamster contain a high number of sebaceous glands described as being similar to those of human sebaceous follicles in terms of certain characteristics, including their morphology and response to androgens and anti-androgens. In fact the growth and lipogenesis of the sebaceous glands on the inner face of the ear of Syrian hamsters depend on the androgens. The anti-androgenic activity of test compounds can be easily evaluated by measuring the size of the sebaceous glands. Moreover, this model has been selected to evaluate the efficacy of the antagonists of the receptor to the androgens on the sebaceous gland.
Test compounds were evaluated according to the following protocol: male hamsters aged weeks were treated daily for 24 days on the inner face of the right ear with 30 μL of a solution of the test compound to be evaluated in absolute ethanol. For each test compound, groups were treated with solutions at a range of concentrations (e.g., from 0.01 g %/mL to 3 g %/mL), as well as absolute ethanol used as a control. (A concentration of 3 g %/mL means a concentration of 0.03 g/mL.)
At the end of the study, samples were taken from the treated ears. The skin of the inner face of the ear was separated from the cartilage. Under a binocular magnifying glass, two zones of 4 mm^2 were numbered. The size of the sebaceous glands was measured on the numerical images by manually trimming the glands by means of image analysis software (TINA.20). For each image some twenty glands were measured. The average area of the sebaceous glands was calculated for each treatment group.
A Student t-test for independent groups comparing each dose with vehicle was carried out to compare the average size of the sebaceous glands as a function of the doses applied. When the evolution of the effect is represented graphically as a function of the administered dose of test compound, the curve obtained is sigmoid in shape. In the median part, this sigmoid may be likened to a straight line. The dose corresponding to 50% of the maximum effect corresponds graphically to the point located in the centre of the linear section defined as “effective dose 50”. This DE50 characterises the potency of the test compound.

Kd (androgen receptor (AR); read-out: Kdapp): ≤ 30 nM
SMILES: CCCC(O)(C(=O)Nc1cc(Br)nc(OC)c1)C(C)C (stereo not drawn) [Compound 79A, 2-Hydroxy-2-isopropyl-pentanoic acid (2-bromo-6-methoxy-pyridin-4-yl)-amide]
Reduction of sebaceous glands (following treatment at 1 g %/mL) [1]: 48%

Kd (androgen receptor (AR); read-out: Kdapp): ≤ 30 nM
SMILES: COc1cc(NC(=O)C(C)(O)C(C)C)cc(Br)n1 (stereo not drawn) [Compound 76A, N-(2-Bromo-6-methoxy-pyridin-4-yl)-2-hydroxy-2,3-dimethyl-butyramide]
Reduction of sebaceous glands (following treatment at 1 g %/mL) [1]: 58%

Kd (androgen receptor (AR); read-out: Kdapp): ≤ 30 nM
SMILES: COc1cc(NC(=O)C(C)(O)CC(C)C)cc(Br)n1 (single isomer, unassigned) [Compound 71B]
Reduction of sebaceous glands (following treatment at 1 g %/mL) [1]: 56%

The next lines start with the compound.

SMILES: CCCCC(C)(O)C(=O)Nc1cc(Br)nc(OC)c1 (stereo not drawn) [Compound 72A, 2-Hydroxy-2-methyl-hexanoic acid (2-bromo-6-methoxy-pyridin-4-yl)-amide]
Kd (androgen receptor (AR); read-out: Kdapp): ≤ 30 nM | Reduction of sebaceous glands (following treatment at 1 g %/mL) [1]: 48%

SMILES: COc1cc(NC(=O)C(O)(C(C)C)C(C)C)cc(Br)n1 [Compound 68, N-(2-Bromo-6-methoxy-pyridin-4-yl)-2-hydroxy-2-isopropyl-3-methyl-butyramide]
Kd (androgen receptor (AR); Kdapp): ≤ 30 nM | Reduction of sebaceous glands (following treatment at 1 g %/mL) [1]: 57%

SMILES: CCCC(C)(O)C(=O)Nc1cc(Br)nc(OC)c1 (stereo not drawn) [Compound 78B, 2-Hydroxy-2-methyl-pentanoic acid (2-bromo-6-methoxy-pyridin-4-yl)-amide]
Kd (androgen receptor (AR); read-out: Kdapp): ≤ 100 nM | Reduction of sebaceous glands (following treatment at 1 g %/mL) [1]: 50%
